Results taken from publication PMC12749626, “Expediting hit-to-lead progression in drug discovery through reaction prediction and multi-dimensional optimization” (Nature Communications, 2025).

Legend:
Conditions in all cases: 10 uM; n=2
α1A-ADRENOCEPTOR = α1A-ADRENOCEPTOR (Homo sapiens, UniProt P35348)
CHOLECYSTOKININ 1 REC. = CHOLECYSTOKININ 1 REC. (Homo sapiens, UniProt P32238)
μ OPIOID REC. = μ OPIOID REC. (Homo sapiens, UniProt P35372)
κ OPIOID REC. = κ OPIOID REC. (Homo sapiens, UniProt P41145)
Sequence of κ OPIOID REC. (P41145 whole entry): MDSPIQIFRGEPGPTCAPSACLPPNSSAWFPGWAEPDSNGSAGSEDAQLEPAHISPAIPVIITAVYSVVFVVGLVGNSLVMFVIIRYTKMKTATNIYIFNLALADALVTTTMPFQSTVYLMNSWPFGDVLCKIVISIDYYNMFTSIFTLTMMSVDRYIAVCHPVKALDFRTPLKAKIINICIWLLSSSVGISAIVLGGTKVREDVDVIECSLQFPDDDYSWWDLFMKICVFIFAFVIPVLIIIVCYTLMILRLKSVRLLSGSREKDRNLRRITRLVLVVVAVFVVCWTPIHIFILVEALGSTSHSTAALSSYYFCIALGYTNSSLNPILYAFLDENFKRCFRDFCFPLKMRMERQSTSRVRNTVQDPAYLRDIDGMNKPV

5HT2A = 5HT2A (Homo sapiens, UniProt P28223)
Sequence of 5HT2A (P28223 whole entry): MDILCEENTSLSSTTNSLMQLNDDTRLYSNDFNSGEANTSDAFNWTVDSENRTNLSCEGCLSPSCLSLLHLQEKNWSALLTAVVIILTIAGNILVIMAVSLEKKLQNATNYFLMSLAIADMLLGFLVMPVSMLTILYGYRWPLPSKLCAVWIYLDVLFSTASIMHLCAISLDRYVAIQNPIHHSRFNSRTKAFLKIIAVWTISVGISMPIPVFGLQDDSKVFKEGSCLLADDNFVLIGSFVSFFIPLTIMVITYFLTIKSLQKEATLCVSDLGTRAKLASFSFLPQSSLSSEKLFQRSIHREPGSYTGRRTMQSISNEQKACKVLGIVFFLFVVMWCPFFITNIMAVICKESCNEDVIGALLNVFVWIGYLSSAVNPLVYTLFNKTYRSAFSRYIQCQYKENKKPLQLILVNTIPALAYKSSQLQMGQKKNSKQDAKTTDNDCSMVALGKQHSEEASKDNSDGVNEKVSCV

Sequence of μ OPIOID REC. (P35372 whole entry): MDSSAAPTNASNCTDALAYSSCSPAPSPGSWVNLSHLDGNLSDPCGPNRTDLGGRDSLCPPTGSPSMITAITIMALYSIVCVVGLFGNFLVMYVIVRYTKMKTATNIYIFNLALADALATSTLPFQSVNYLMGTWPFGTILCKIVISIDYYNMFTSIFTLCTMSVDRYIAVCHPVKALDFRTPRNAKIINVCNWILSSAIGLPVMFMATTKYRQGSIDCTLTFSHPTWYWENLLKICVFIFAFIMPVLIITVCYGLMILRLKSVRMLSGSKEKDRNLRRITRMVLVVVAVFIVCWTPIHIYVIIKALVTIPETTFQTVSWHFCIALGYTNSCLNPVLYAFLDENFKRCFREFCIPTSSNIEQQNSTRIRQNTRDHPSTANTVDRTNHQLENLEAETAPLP
Sequence of UniProt P32238 (P32238 whole entry): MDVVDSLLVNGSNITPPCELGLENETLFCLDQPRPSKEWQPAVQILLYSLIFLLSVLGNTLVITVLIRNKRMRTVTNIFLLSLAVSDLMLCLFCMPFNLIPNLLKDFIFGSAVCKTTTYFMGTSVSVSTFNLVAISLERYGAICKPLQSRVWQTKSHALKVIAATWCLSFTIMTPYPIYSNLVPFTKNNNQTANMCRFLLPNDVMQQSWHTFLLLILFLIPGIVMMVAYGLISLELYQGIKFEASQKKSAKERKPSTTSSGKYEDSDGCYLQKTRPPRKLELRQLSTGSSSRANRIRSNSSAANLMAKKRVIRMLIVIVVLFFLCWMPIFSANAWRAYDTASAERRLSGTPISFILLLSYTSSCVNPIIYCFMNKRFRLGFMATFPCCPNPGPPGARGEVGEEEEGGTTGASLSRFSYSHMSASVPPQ
Sequence of UniProt P35348 (P35348 whole entry): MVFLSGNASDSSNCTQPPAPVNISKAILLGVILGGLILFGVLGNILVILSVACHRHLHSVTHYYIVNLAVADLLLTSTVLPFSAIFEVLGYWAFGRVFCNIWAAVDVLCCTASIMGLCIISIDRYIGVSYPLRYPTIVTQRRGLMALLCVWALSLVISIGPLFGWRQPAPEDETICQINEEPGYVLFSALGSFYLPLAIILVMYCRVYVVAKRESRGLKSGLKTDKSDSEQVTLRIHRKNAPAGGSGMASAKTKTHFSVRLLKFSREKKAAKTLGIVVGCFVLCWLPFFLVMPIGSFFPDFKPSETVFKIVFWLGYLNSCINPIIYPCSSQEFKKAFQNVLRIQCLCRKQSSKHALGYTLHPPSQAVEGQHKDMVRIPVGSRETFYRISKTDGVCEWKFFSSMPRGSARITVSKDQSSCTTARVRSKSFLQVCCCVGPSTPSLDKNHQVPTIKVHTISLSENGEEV

## O=C(c1ccc2nc(-c3cnccc3C3(C4CCC4)CC3)oc2c1)N1CCN(c2nc3nc(Cl)ccc3o2)CC1 [Compound 27]
α1A-ADRENOCEPTOR
  α1A-ADRENOCEPTOR percent activity or inhibition compared to the assay reference: 5%
CHOLECYSTOKININ 1 REC.
  CHOLECYSTOKININ 1 REC. percent activity or inhibition compared to the assay reference: 4%
μ OPIOID REC.
  μ OPIOID REC. percent activity or inhibition compared to the assay reference: 16%
κ OPIOID REC.
  κ OPIOID REC. percent activity or inhibition compared to the assay reference: 48%
5HT2A
  5HT2A percent activity or inhibition compared to the assay reference: 12%
